In patent publication US7906520B2, “Methods for treating pain” (The General Hospital Corporation, priority 2003, dated 2011):

What was measured:
[1] = test system: formalin injection into the hindpaw; assay: Formalin test: flinching behavior and cFos immunoreactivity in dorsal horn; format: in vivo, rat
Description: DAHP (180 mg/kg) was injected i.p. one hour before injection of formalin into the hindpaw. Flinches were counted for one hour starting right after formalin injection. FIG. 24A is a series of photo micrographs showing cFos immunoreactivity in ipsilateral dorsal horn neurons two hours after formalin injection in DAHP and vehicle-treated rats. FIG. 24B is a bar graph quantifying the number of cFos immunoreactive cell bodies observed under each condition.

[2] = DAHP pharmacokinetics in plasma and CSF; format: in vivo, rat; details: single dose 180 mg/kg i.p.
Description: FIGS. 14A-14C represent a series of graphs showing pharmacokinetic features of DAHP and the pharmacokinetic-pharmacodynamic relationship. […] In addition, concentrations of DAHP in cerebrospinal fluid (CSF) were determined at an early and late time point. In FIG. 14B, plasma concentrations were fitted according to a one-compartment PK model with first order input and first order elimination. PK parameters are presented where Cmax is the maximum concentration, tmax the time of the maximum concentration, k01 is the absorption rate constant, t1/2abs. represents the absorption half-life, k10 is the elimination rate constant, t1/2 el is the elimination half-life, and Cl is the clearance. In FIG. 14C, pooled plasma concentration and effect data of the CFA model were used to assess the PK/PD relationship employing a standard sigmoidal Emax model.

[3] = test system: SNI model of neuropathic pain; assay: Spared nerve injury (SNI) model of neuropathic pain, von Frey and acetone tests; format: in vivo
Description: FIGS. 8A-8D represent a series of graphs showing the effect of DAHP on nociceptive behavior in the SNI model of neuropathic pain. Figures on the left show the threshold to mechanical stimuli applied with von Frey hairs (von Frey threshold). Figures on the right show the duration of paw licking, shaking and lifting following acetone application to the paw as a measure for cold allodynia. In FIG. 8A, rats were treated with DAHP (180 mg/kg/d i.p.) for three days starting three days after surgery (early treatment). Nociceptive behavior was assessed daily before and after drug injection. In FIG. 8B, the treatment period was extended to five days (180 mg/kg/d i.p.) starting three days after surgery and pain behavior was assessed daily before and after drug injection and once every second day for an additional week after stopping the daily drug injections. In FIG. 8C, treatment with DAHP (180 mg/kg/d i.p. for 5 days) was started 17 days after surgery i.e. in the chronic phase without any treatment in the early phase. Nociceptive behavior was assessed once daily 3 h after drug injection. In FIG. 8D, animals received a continuous spinal infusion of DAHP (6 mg/kg/d) for 14 days. The infusion was started directly after surgery. Nociceptive behavior was assessed once daily.
FIGS. 16A-16D show the effects of systemic (16A) and intrathecal (16B) treatment with methotrexate (MTX) on the nociceptive behavior in the SNI model of neuropathic pain. […] In FIG. 16A MTX (0.2 mg/kg/d) was injected i.p. once daily starting 5 days after SNI surgery. Nociceptive behavior was assessed once daily three hours after drug injection. In FIG. 16B, MTX was administered as continuous intrathecal infusion (0.1 mg/kg/d for 14 days) starting right after SNI surgery. Nociceptive behavior was assessed once daily. FIGS. 16C and 16D show the body weight gain of animals during systemic (16C) and intrathecal (16D) MTX treatment. Determination of the weight gain was used to assess general well-being and potential toxic effects of MTX.
In this graph, closed triangles represent vehicle, i.p.; open triangles represent DAHP at 90 mg/kg/day, i.p.; open squares represent DAHP at 180 mg/kg/day, i.p.; and open circles represent DAHP at 270 mg/kg/day, i.p.
All procedures were performed in accordance with Massachusetts General Hospital animal care regulations. Adult male Sprague Dawley rats (200-300 g) were anesthetized with halothane. For the sciatic nerve transection (axotomy), the left sciatic nerve was exposed at the mid thigh level, ligated with 3/0 silk, and sectioned distally. The wound was sutured in two layers, and the animals were allowed to recover. For SNI the tibial and peroneal branch of the sciatic nerve were ligated and transected whereas the sural nerve was spared. For CCI, the sciatic nerve was loosely ligated with dexon 4/0 (three ligatures) and for the spinal ligation model the L5 spinal segmental nerve was ligated.

[4] = DAHP 6 mg/kg/day continuous intrathecal infusion
[5] = DAHP 180 mg/kg/day i.p., started 3 or 17 days post-surgery, vs vehicle

**Q.** With Nc1cc(O)nc(N)n1 [DAHP, 2,4-Diamino-6-hydroxypyrimidine] as the molecule, how does the “flinching behavior in the formalin assay” value ([1]; single i.p. dose of 180 mg/kg) read?
**A.** The value was “reduced the flinching behavior”.

**Q.** What about the “c-FOS immunoreactivity in ipsilateral dorsal horn neurons” value ([1]; two hours after formalin, intraperitoneal DAHP, p<0.05) of the same molecule?
**A.** The value was “significantly reduced elevation”.

**Q.** What about the “distribution in cerebrospinal fluid” value [2] of the same molecule?
**A.** Its value is “rapid distribution in the cerebrospinal fluid”.

**Q.** What about the “plasma concentration after i.p. injection” value [2] of the same molecule?
**A.** The value was “rapidly increased”.

**Q.** What about the cold allodynia [3, 4] of the same molecule?
**A.** The cold allodynia was “reduced”.

**Q.** And the mechanical allodynia [3, 4]?
**A.** The mechanical allodynia was “reduced”.

**Q.** What about the “cold pain (cold allodynia, acetone)” value [3, 5] of the same molecule?
**A.** Its value is “reduction”.

**Q.** What about the “mechanical sensitivity (von Frey threshold)” value [3, 5] of the same molecule?
**A.** The value was “reduction in mechanical sensitivity”.

**Q.** And the “dose-effect relationship, nociceptive response to mechanical or cold stimuli” value ([3]; DAHP 90, 180, 270 mg/kg/day i.p.)?
**A.** The value was “dose-dependent relationship”.
